Experimental data from US12697302B2, “Tricine and citric acid lipids” (Translate Bio, Inc., priority 2019, dated 2026).

system: firefly luciferase (FFL) production in the lung; test: Delivery of firefly luciferase (FFL) mRNA by intratracheal administration, IVIS imaging of luciferase production in the lung; assay type: in vivo; conditions: lipid nanoparticles with FFL mRNA, cationic lipid, DMG-PEG2000, cholesterol, DOPE; single intratracheal aerosol administration; male CD1 mice; 24 hours after administration
Method: Lipid nanoparticle formulations comprising FFL mRNA, cationic lipid, DMG-PEG2000, cholesterol and DOPE were administered to male CD1 mice (6-8 weeks old) by a single intratracheal aerosol administration via a Microsprayer® (50 ul/animal) while under anesthesia. At approximately 24 hours post-dose, the animals were dosed with luciferin at 150 mg/kg (60 mg/ml) by intraperitoneal injection at 2.5 ml/kg. After 5-15 minutes, all animals were imaged using an IVIS imaging system to measure luciferase production in the lung.

Row | Structure (SMILES) | in vivo protein (FFL) production in the lung / luciferase activity
1 | CCCCCCCCCCCCCCOC(=O)CC(CC(=O)OCCCCCCCCCCCCCC)(OC(=O)CCN1CCCCC1)C(=O)OCCCCCCCCCCCCCC [Compound 16] | high levels
2 | CCCCCCCC(=O)OCC(COC(=O)CCCCCCC)(COC(=O)CCCCCCC)N(CC(=O)OCCN(C)C)C(=O)CCCCCCC [Compound 177, 2-(N-(2-(2-(dimethylamino)ethoxy)-2-oxoethyl)octanamido)-2-((octanoyloxy)methyl) propane-1,3-diyl dioctanoate] | high levels
3 | CCCCCCCCOC(=O)CC(CC(=O)OCCCCCCCC)(OC(=O)CCN(C)C)C(=O)OCCCCCCCC [Compound 1, trioctyl 2-((3-(dimethylamino)propanoyl)oxy) propane-1,2,3-tricarboxylate] | high levels
4 | CCCCC/C=C\C/C=C\CCCCCCCCOC(=O)CC(CC(=O)OCCCCCCCC/C=C\C/C=C\CCCCC)(OC(=O)CCCN(C)C)C(=O)OCCCCCCCC/C=C\C/C=C\CCCCC [Compound 249] | high levels
